Numbers after ± are expanded uncertainties.

The conditions of series [1]: Crystal; DSC.
The nature of series [2]: Molar enthalpy of transition or fusion. The note with it: Crystal; DSC.

In the case of `Cc1cnc(C(=O)O)cn1` [2-methylpyrazine-5-carboxylic acid], in series [1], the Triple point temperature is on record as 440.35 ± 1.2 K. Moreover, the “Molar enthalpy of transition or fusion” value in series [2] was found to be 6.84 ± 0.237 kcal/mol.

Values taken from the NIST ThermoML archive (doi:10.1021/acs.jced.9b00406).
